Consider eleven compounds from patent US9771366B2, “Substituted tetrahydropyrido[3′,2′:4,5]pyrrolo[1,2-a]pyrazine-2-carboxamides as RSK inhibitors” (Phoenix Molecular Designs, priority 2016, dated 2017).

The target of one data set is RSK2 (Homo sapiens (Human), UniProt P51812). Kind of data set: Radioisotope kinase assay (SignalChem), RSK2. In kind it is biochemical. On the procedure:
The assay conditions for the RSK2 kinase target were optimized to yield acceptable enzymatic activity. In addition, the assays were optimized to give high signal-to-noise ratio.
Radioisotope assays (SignalChem) were performed for the evaluation of the kinase target profiling and all assays were performed in a designated radioactive working area. The kinase targets were RSK1, RSK2, RSK3, RSK4 and MK2.
The assay was initiated by the addition of ^33P-ATP and the reaction mixture incubated at 30° C. for 15 minutes. After the incubation period, the assay was terminated by spotting 10 μL of the reaction mixture onto Multiscreen phosphocellulose P81 plate. The Multiscreen phosphocellulose P81 plate was washed 3 times for approximately 15 minutes each in a 1% phosphoric acid solution. The radioactivity on the P81 plate was counted in the presence of scintillation fluid in a Trilux scintillation counter.
Blank controls were set up for each target kinase which included all the assay components except the addition of the appropriate substrate (which was replaced with equal volume of assay dilution buffer). The corrected activity for each target kinase was determined by removing the blank control value.

A short description of data set [1]: Solubility assessment at 20 mg/ml. Particulars: for 20 mg/ml Solubility: dissolved in DMSO; for pH: 20 mg/ml solution. In kind it is physicochemical. On the procedure:
Solubility is an important property for therapeutic drug candidates. Poor solubility can lead to low bioavailability resulting in suboptimal drug delivery. It can also prevent the evaluation of test agents in animals because the concentration(s) needed to achieve the desired effect cannot be achieved to poor solubility. For solubility assessments, small molecules targeting RSK were compared. For these assessments, 100 mM solutions of the compounds dissolved in DMSO were diluted in DMEM growth media (Life Technologies) supplemented with fetal bovine serum (FBS, Life Technologies) and 100 units/ml penicillin and 100 units/ml streptomycin (Life Technologies) to make 20 mg/ml solutions. Once diluted, the solutions were vortexed and examined for the formation of precipitates. […] For Compound 26, a 100 mM solution of the compound dissolved in DMSO was diluted in phosphate buffered saline (Life Technologies) to make a 20 mg/ml solution. The stock of […] was chosen because this is the upper end of what would be required to dose mice for a range of studies including MTD, PK, PD and efficacy. The pH of this solution was determined to be 2, as previously described. […] At high concentrations some RSK inhibitors were highly soluble while others were not. Compound 0 is (R)—N-(1-benzyl-1H-pyrazol-4-yl)-9-methyl-6-oxo-6,7,8,9-tetrahydropyrido[3′,2′:4,5]pyrrolo[1,2-a]pyrazine-2-carboxamide. Compound 0 was not soluble, whereas Compounds 18, 20, 21, 25 and 26 were soluble under the same conditions (Table 5).

The subject of the next data set is CD34+ cells. In words: Colony forming unit hematopoietic stem cell assay. It counts as cell-based, human. Particulars: ratio of IC50 values against CD34+ cells and MDA-MB-231 cells. The method, then:
The hematopoietic colony forming cell assay was conducted based on a protocol outlined by StemCell Technologies. […] Following the addition of CD34^+ cells isolated from human cord blood or peripheral blood (StemCell Technologies) at a final concentration of 5×10^2 cells per dish, the tubes were vortexed and allowed to stand for 5 minutes at room temperature. Next, the MethoCult mixtures were dispensed into 35 mm dishes (Corning Incorporated) through blunt end needles (StemCell Technologies) and 5 ml syringes (BD Biosciences) at a volume of 1.1 ml per dish. The medium was evenly distributed across the surface of each dish by gentle tilting and rotation. The dishes were then placed in a 100 mm culture dish (Grenier Bio-One) containing additional 35 mm dishes with sterile water to maintain humidity. The culture dish was then placed at 37° C. in a humidified incubator containing 5% CO2 for 13 days. The number of myeloid and erythroid derived colonies in both the treated and control dishes were counted and compared.

The next data set has as its system HLA-DRA mRNA. Kind of data set: Immuno-oncology: HLA-DRA mRNA expression. In kind it is cell-based, Human. Particulars: MDA-MB-231 and JIMT-1 cells; Compound 16 2 or 4 uM, Compound 18 1, 2, or 4 uM. From the text:
(§1) A key feature of cancer is low immunogenicity. This can occur by several mechanisms that allow the cells to escape immune recognition. […] HLA-DRA is a member of MHC-II genes and CIITA is the master regulator of MHC II transcription. Thus it was surprising that CIITA, which would be expected to regulate MHC II gene expression, was not altered by RSK inhibition. […] HLA-DRA is important for immune recognition while PD-L1 is involved in immune checkpoints.

The subject of another data set is CIITA mRNA. In words: Immuno-oncology: CIITA mRNA expression. It counts as cell-based, Human. Particulars: MDA-MB-231 and JIMT-1 cells; Compound 16 2 or 4 uM, Compound 18 1, 2, or 4 uM.
Text: as §1

Data set [2] concerns CD274, the gene that encodes PD-L1. Kind of data set: Immuno-oncology: CD274 expression in MDA-MB-231 cells. It counts as cell-based, Human. The conditions noted are these: Compound 16 2 or 4 uM, Compound 18 1, 2 or 4 uM.
Text: as §1

Data set [3] deals with phosphorylated Y-box binding protein-1 (YB-1) at serine 102 (P—YB-1S102). Kind of data set: Immunoblotting of phosphorylated YB-1 in MDA-MB-231 cells. Particulars: MDA-MB-231, 0.01-1 uM, 96 hrs. (In general: Immunoblotting shows a protein as a band on a membrane.)
Procedure: Following desired experimental conditions, breast cancer cell lines grown and treated in 6 well plates or 100 mm culture dishes (Grenier Bio-One) were placed on ice and the supernatant from each well was removed and the cells were washed in cold PBS. Following removal of PBS, cells were exposed to radioimmunoprecipitation assay (RIPA) buffer (50 mM Tris-HCl (pH 8), 150 mM NaCl, 1% NP-40, 0.5% sodium deoxycholate, 0.1% SDS; Fisher Scientific) supplemented with 1% phosphatase inhibitor (Fisher Scientific) and 1% protease inhibitor (Fisher Scientific) for 10 minutes. Samples were transferred to eppendorf tubes, vortexed and then centrifuged at 14 000 rpm for 10 minutes. Supernatants were collected as whole cell lysates. For mouse tumour tissues, each sample was place in a 35 mm culture dish with complete RIPA lysis buffer. The samples were diced in the buffer on ice with a sterile scalpel (VWR) and the buffer and tissue were transferred to an eppendorf tube. The samples were left on ice for 10 minutes with periodic vortexing every 2 to 3 minutes. The samples were then transferred to a Qiashredder (Qiagen) and centrifuged at 14 000 rpm for 2 minutes. The flow through was transferred to a new eppendorf tube and the samples were centrifuged again at 14 000 rpm for 5 minutes. Supernatants were collected as whole cell lysates.
For the majority of experiments in this study, 30 μg of protein per well was loaded. Samples were then resolved on SDS-PAGE (polyacrylamide gel electrophoresis) using various percentages of acrylamide gels (8%-12%), depending on the proteins of interest. […] For certain immunoblots, bands of proteins of interest were scanned and band intensity ratios were determined by densitometric analysis (ImageJ). […] To assess whether cells are actively undergoing cell death, the activity of poly ADP ribose polymerase (PARP) (1:1000 CST) was also measured using the immunoblotting method.
Data set [4] in a line: Plasma and tumor levels by LC/MS in MDA-MB-231 xenograft mice. In kind it is in vivo. The conditions noted are these: nu/nu, mouse, oral, 100 mg/kg; for concentration at 30 min: 30 minutes after last dose.

Entries after “also recorded” stand apart in the source; their conditions may differ. Where a name gives a salt, the structure may show the parent alone. Read-outs that look alike come from different tables or passages of the source.

Chain of RSK2 (P51812 whole entry): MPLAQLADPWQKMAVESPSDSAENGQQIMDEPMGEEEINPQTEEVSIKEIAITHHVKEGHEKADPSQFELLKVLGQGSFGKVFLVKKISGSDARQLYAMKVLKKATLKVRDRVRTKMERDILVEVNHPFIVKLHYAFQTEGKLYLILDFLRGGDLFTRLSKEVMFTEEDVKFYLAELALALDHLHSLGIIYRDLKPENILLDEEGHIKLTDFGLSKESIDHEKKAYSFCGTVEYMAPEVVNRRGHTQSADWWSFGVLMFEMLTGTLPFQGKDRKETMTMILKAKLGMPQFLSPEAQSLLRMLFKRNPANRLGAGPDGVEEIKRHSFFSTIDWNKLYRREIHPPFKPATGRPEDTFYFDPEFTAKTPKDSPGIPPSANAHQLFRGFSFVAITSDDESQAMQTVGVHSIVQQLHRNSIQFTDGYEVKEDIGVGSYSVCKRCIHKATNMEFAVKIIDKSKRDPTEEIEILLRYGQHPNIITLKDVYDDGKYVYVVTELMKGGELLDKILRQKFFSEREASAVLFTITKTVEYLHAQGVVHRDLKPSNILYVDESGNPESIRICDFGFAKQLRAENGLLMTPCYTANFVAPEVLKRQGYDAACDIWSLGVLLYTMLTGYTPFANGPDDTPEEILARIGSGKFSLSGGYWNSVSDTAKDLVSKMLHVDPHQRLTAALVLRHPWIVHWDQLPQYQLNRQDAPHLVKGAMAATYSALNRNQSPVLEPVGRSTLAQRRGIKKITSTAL

In general, IC50 refers to the concentration that inhibits the measured activity by half. A higher IC50 goes with lower potency. `C[C@@H]1CNC(=O)c2cc3ccc(C(=O)Nc4cnn(Cc5ccccc5N)c4)nc3n21` [Compound 17, (R)—N-(1-(2-aminobenzyl)-1H-pyrazol-4-yl)-9-methyl-6-oxo-6,7,8,9-tetrahydropyrido[3′,2′:4,5]pyrrolo[1,2-a]pyrazine-2-carboxamide] gave an IC50 against RSK2 of 14 nM. This lies in the double-digit nanomolar range.
As for `C[C@@H]1CNC(=O)c2cc3ccc(C(=O)Nc4cnn(Cc5ccccc5)c4)nc3n21` [Compound 0, (R)—N-(1-benzyl-1H-pyrazol-4-yl)-9-methyl-6-oxo-6,7,8,9-tetrahydropyrido[3′,2′:4,5]pyrrolo[1,2-a]pyrazine-2-carboxamide, reference compound], in data set [1] (diluted in DMEM), the “20 mg/ml Solubility” value is “not soluble; also recorded: Precipitate”. Further, the “solubility for systemic delivery / pharmacodynamics evaluation” value in data set [1] (mice) was “poor or nonexistent solubility”. In the data set on CD34+ cells, the “Therapeutic Window” value is reported as 50X.
On RSK2, `C[C@@H]1CNC(=O)c2cc3ccc(C(=O)Nc4cnn(CC5CCN(C)CC5)c4)nc3n21` [Compound 20, (R)-9-methyl-N-(1-((1-methylpiperidin-4-yl)methyl)-1H-pyrazol-4-yl)-6-oxo-6,7,8,9-tetrahydropyrido[3′,2′:4,5]pyrrolo[1,2-a]pyrazine-2-carboxamide] gave an IC50 of 124 nM. This compound came in with a pH in data set [1] (DMSO diluted in DMEM) of 8. The “20 mg/ml Solubility” value in data set [1] (diluted in DMEM) is listed as “Soluble”.
Take `C[C@@H]1CNC(=O)c2cc3ccc(C(=O)Nc4cnn(Cc5ccc(C(F)(F)F)cc5)c4)nc3n21` [Compound 22, (R)-9-methyl-6-oxo-N-(1-(4-(trifluoromethyl)benzyl)-1H-pyrazol-4-yl)-6,7,8,9-tetrahydropyrido[3′,2′:4,5]pyrrolo[1,2-a]pyrazine-2-carboxamide]: the “20 mg/ml Solubility” value in data set [1] (diluted in DMEM) was “Precipitate”.
In the case of `C[C@@H]1CNC(=O)c2cc3ccc(C(=O)Nc4ccccc4C(N)=O)nc3n21` [Compound 21, (R)—N-(2-carbamoylphenyl)-9-methyl-6-oxo-6,7,8,9-tetrahydropyrido[3′,2′:4,5]pyrrolo[1,2-a]pyrazine-2-carboxamide], the pH in data set [1] (DMSO diluted in DMEM) amounted to 9. Also, the “20 mg/ml Solubility” value in data set [1] (diluted in DMEM) is given as “Soluble”.
Consider `CC(=O)O[C@H]1C(=O)[C@@]2(C)[C@H]([C@H](OC(=O)c3ccccc3)[C@]3(O)C[C@H](OC(=O)[C@H](O)[C@@H](NC(=O)c4ccccc4)c4ccccc4)C(C)=C1C3(C)C)[C@]1(OC(C)=O)CO[C@@H]1C[C@@H]2O` [Taxol, paclitaxel, reference compound], for which the “Therapeutic Window” value with CD34+ cells is on record as 6.9X.
For `C[C@@H]1CNC(=O)c2c(Cl)c3ccc(C(=O)Nc4cnn(Cc5ccccc5)c4)nc3n21` [Compound 24, (R)—N-(1-benzyl-1H-pyrazol-4-yl)-5-chloro-9-methyl-6-oxo-6,7,8,9-tetrahydropyrido[3′,2′:4,5]pyrrolo[1,2-a]pyrazine-2-carboxamide], the “20 mg/ml Solubility” value in data set [1] (diluted in DMEM) is “Precipitate”.
As for `C[C@@H]1CNC(=O)c2cc3ccc(C(=O)Nc4cnn(Cc5cccc(N)c5)c4)nc3n21` [Compound 16, (R)—N-(1-(3-aminobenzyl)-1H-pyrazol-4-yl)-9-methyl-6-oxo-6,7,8,9-tetrahydropyrido[3′,2′:4,5]pyrrolo[1,2-a]pyrazine-2-carboxamide], it took 23 nM to reach half-maximal inhibition at RSK2 (IC50). Besides, the “levels of HLA-DRA mRNA” value with HLA-DRA mRNA is reported as “elevated”. Besides, the “mRNA expression of CIITA” value in the data set on CIITA mRNA is listed as “little effect”. In addition, in data set [2], the “levels of CD274” value is recorded as “reduced”. Also, the “Therapeutic Window” value in the data set with CD34+ cells is on record as >100X. Also, in data set [3], the “loss of P—YB-1” value is listed as “dose dependent loss”.
On RSK2, `C[C@@H]1CNC(=O)c2cc3ccc(NC(=O)c4cnn(Cc5ccccc5)c4)cc3n21` [Compound 11, (R)-1-benzyl-N-(4-methyl-1-oxo-1,2,3,4-tetrahydropyrazino[1,2-a]indol-7-yl)-1H-pyrazole-4-carboxamide] came in with a half-maximal inhibitory concentration (IC50) of 1380 nM.
On to `C[C@@H]1CNC(=O)c2cc3ccc(C(=O)Nc4cnn(Cc5ccc(N)cc5)c4)nc3n21` [Compound 25, (R)—N-(1-(4-aminobenzyl)-1H-pyrazol-4-yl)-9-methyl-6-oxo-6,7,8,9-tetrahydropyrido[3′,2′:4,5]pyrrolo[1,2-a]pyrazine-2-carboxamide hydrochloride salt], for which 18 nM corresponded to half-maximal inhibition against RSK2 (IC50). The pH in data set [1] (DMSO diluted in DMEM, hydrochloride salt) came out at 2. Besides, in data set [1] (diluted in DMEM, hydrochloride salt), the “20 mg/ml Solubility” value is “Soluble”. In addition, the concentration at 30 min was determined as 35.1 µM in data set [4] (plasma, 100 mg/kg BID PO three days, read-out: plasma level, average); 7.7 µM in data set [4] (tumor, 100 mg/kg BID PO 21 days, read-out: average concentration in the tumors); 7.1 µM in data set [4] (tumor, 100 mg/kg BID PO three days, read-out: Tumor level, average). For the same compound, the Kp at 30 min in data set [4] (tumor/plasma, three days of treatment, read-out: tumor uptake (ratio between tumor and plasma)) came out at 0.2. In the data set with CD34+ cells (hydrochloride salt), the “Therapeutic Window” value was >100X.
For the compound `C[C@@H]1CNC(=O)c2cc3ccc(C(=O)Nc4cnn(Cc5ccc(CN)cc5)c4)nc3n21` [Compound 26, (R)—N-(1-(4-(aminomethyl)benzyl)-1H-pyrazol-4-yl)-9-methyl-6-oxo-6,7,8,9-tetrahydropyrido[3′,2′:4,5]pyrrolo[1,2-a]pyrazine-2-carboxamide hydrochloride salt], the “pH at which the compound remained in solution” value in data set [1] (20 mg/ml in PBS after 4M NaOH was added) is 9. Moreover, the pH in data set [1] (DMSO diluted in PBS, hydrochloride salt) is 2-9. Moreover, in data set [1] (diluted in PBS, hydrochloride salt), the “20 mg/ml Solubility” value is listed as “Soluble”.
